Structures can show the parent of a compound that is named as a salt.

In one assay the test system is SMN2 promoter. As to the kind of experiment: SMN2 promoter assay (β-lactamase reporter) in NSC-34 cells. It counts as cell-based, mouse. The following applies: Mus musculus, SMN2 promoter driving β-lactamase, 12 point dose curve, average of 3-6 dose curve experiments.
For `Nc1nc(N)c2c(OCc3cccc4cccnc34)cccc2n1` [Example 113, 5-(Quinolin-8-ylmethoxy)-quinazoline-2,4-diamine], the concentration for a half-maximal effect (EC50) (usually the concentration at which the effect is half-maximal) was under 1000 nM.

In the case of `COCC(Oc1cccc2nc(N)nc(N)c12)c1ccc(Cl)cc1` (centres unmarked) [Example 114, 5-[1-(4-Chlorophenyl)-2-methoxyethoxy]-quinazoline-2,4-diamine], the EC50 is under 1000 nM.

The molecule `Nc1nc(N)c2c(OC(C(=O)O)c3ccc(Cl)cc3)cccc2n1` (centres unmarked) [Example 115, (4-Chlorophenyl)-(2,4-diamino-quinazolin-5-yloxy)-acetic acid] had an EC50 of under 1000 nM.

`Nc1nc(N)c2c(OCC3CCNCC3)cccc2n1` [Example 116, 5-(Piperidin-4-ylmethoxy)-quinazoline-2,4-diamine hydrochloride] yielded an EC50 of under 1000 nM.

`CN1CCCCC1COc1cccc2nc(N)nc(N)c12` (centres unmarked) [Example 117, 5-(1-Methyl-piperidin-2-ylmethoxy)-quinazoline-2,4-diamine] returned an EC50 of under 1000 nM.

The molecule `Nc1nc(N)c2c(O[C@@H]3C[C@H]4CC[C@@H]3C4)cccc2n1` [Example 118, 5-((1R,2R,4S)-Bicyclo[2.2.1]hept-2-yloxy)quinazoline-2,4-diamine] came in with an EC50 of under 1000 nM.

With `CC(Oc1cccc2nc(N)nc(N)c12)C1CCCC1` (centres unmarked) [Example 120, 5-(1-Cyclopentyl-ethoxy)-quinazoline-2,4-diamine], the EC50 was under 1000 nM.

`CC(C)(C)OC(=O)N1CCC(COc2cccc3nc(N)nc(N)c23)CC1` [Example 121, 4-(2,4-Diamino-quinazolin-5-yloxymethyl)-piperidin-1-carboxylic acid tert-butyl ester] returned an EC50 of under 1000 nM.

In turn, `Nc1nc(N)c2c(OCC3CC4C=CC3C4)cccc2n1` (centres unmarked) [Example 122, 5-(Bicyclo[2.2.1]hept-5-en-2-ylmethoxy)-quinazoline-2,4-diamine] gave an EC50 of under 1000 nM.

`Nc1nc(N)c2c(OCC3CCN(C(=O)c4ccc(Cl)cc4)CC3)cccc2n1` [Example 123, (4-Chlorophenyl)-[4-(2,4-diamino-quinazolin-5-yloxymethyl)-piperidin-1-yl]-methanone] registered an EC50 of under 1000 nM.

For `Nc1nc(N)c2c(OC3CC4CCC3C4)cccc2n1` (centres unmarked) [Example 124, 5-(Bicyclo[2.2.1]hept-2-yloxy)-quinazoline-2,4-diamine], the EC50 was under 1000 nM.

`CCCC(Oc1cccc2nc(N)nc(N)c12)C1CCCCC1` (centres unmarked) [Example 125, 5-(1-Cyclohexyl-butoxy)-quinazoline-2,4-diamine] returned an EC50 of under 1000 nM.

The molecule `CC(Oc1cccc2nc(N)nc(N)c12)C1CCCCC1` (centres unmarked) [Example 126, 5-(1-Cyclohexyl-ethoxy)-quinazoline-2,4-diamine] returned an EC50 of under 1000 nM.

`CC1(COc2cccc3nc(N)nc(N)c23)COC1` [Example 127, 5-(3-Methyl-oxetan-3-ylmethoxy)-quinazoline-2,4-diamine]: the EC50 is under 1000 nM.

In the case of `Nc1nc(N)c2c(OC3COc4ccc(Cl)cc43)cccc2n1` (centres unmarked) [Example 128, 5-(5-Chloro-2,3-dihydro-benzofuran-3-yloxy)-quinazoline-2,4-diamine], the EC50 was under 1000 nM.

`CCC(Oc1cccc2nc(N)nc(N)c12)C1CCCCC1` (centres unmarked) [Example 129, 5-(1-Cyclohexylpropoxy)-quinazoline-2,4-diamine] had a 50% effective concentration (EC50) of under 1000 nM.

Take `Nc1nc(N)c2c(OCC3CC4CC3C(O)C4O)cccc2n1` (centres unmarked) [Example 131, 5-(2,4-Diamino-quinazolin-5-yloxymethyl)-bicyclo[2.2.1]heptane-2,3-diol]: the EC50 is under 1000 nM.

The molecule `Nc1nc(N)c2c(OCC3CCN(C(=O)c4ccccc4Cl)CC3)cccc2n1` [Example 133, (2-Chlorophenyl)-[4-(2,4-diamino-quinazolin-5-yloxymethyl)-piperidin-1-yl]-methanone] gave an EC50 of under 1000 nM.

On to `Nc1nc(N)c2c(OCC3CCN(C(=O)c4cccc(Cl)c4)CC3)cccc2n1` [Example 134, (3-Chlorophenyl)-[4-(2,4-diamino-quinazolin-5-yloxymethyl)-piperidin-1-yl]-methanone], for which the EC50 was under 1000 nM.

The molecule `Nc1nc(N)c2c(COc3ccccc3Cl)cccc2n1` [Example 138, 5-(2-Chlorophenoxymethyl)quinazoline-2,4-diamine] gave an EC50 of under 1000 nM.

On to `Cc1cc(Cl)ccc1OCc1cccc2nc(N)nc(N)c12` [Example 139, 5-(4-Chloro-2-methylphenoxymethyl)quinazoline-2,4-diamine], for which the EC50 is under 1000 nM.

For `CC(C)(Oc1cccc2nc(N)nc(N)c12)c1cccc(Cl)c1` [Example 140, 5-[1-(3-Chlorophenyl)-1-methylethoxy]quinazoline-2,4-diamine], the EC50 was in the range of 1000 to 5000 nM.

For the molecule `Cc1cc(OCc2cccc3nc(N)nc(N)c23)ccc1Cl` [Example 141, 5-(4-Chloro-3-methylphenoxymethyl)quinazoline-2,4-diamine], the concentration giving a half-maximal response (EC50) is under 1000 nM.

`COc1ccccc1COc1cccc2nc(N)nc(N)c12` [Example 142, 5-(2-Methoxybenzyloxy)quinazoline-2,4-diamine]: the EC50 was under 1000 nM.

In turn, `COc1cccc(COc2cccc3nc(N)nc(N)c23)c1` [Example 143, 5-(3-Methoxybenzyloxy)quinazoline-2,4-diamine] yielded an EC50 of under 1000 nM.

As to `COc1ccc(COc2cccc3nc(N)nc(N)c23)cc1` [Example 144, 5-(4-Methoxybenzyloxy)quinazoline-2,4-diamine], the EC50 was under 1000 nM.

`Nc1nc(N)c2c(OC3(c4cccc(Cl)c4)CCCCC3)cccc2n1` [Example 145, 5-[1-(3-Chlorophenyl)cyclohexyloxy]quinazoline-2,4-diamine] returned a 50% effective concentration (EC50) of 1000 to 5000 nM.

For the molecule `Nc1nc(N)c2c(OC3(c4cccc(Cl)c4)CC3)cccc2n1` [Example 146, 5-[1-(3-Chlorophenyl)cyclopropoxy]quinazoline-2,4-diamine], the EC50 was under 1000 nM.

Turning to `Nc1nc(N)c2c(COc3ccc(F)cc3F)cccc2n1` [Example 147, 5-(2,4-Difluorophenoxymethyl)quinazoline-2,4-diamine], the EC50 was under 1000 nM.

The molecule `COc1ccc(OCc2cccc3nc(N)nc(N)c23)cc1` [Example 148, 5-(4-Methoxyphenoxymethyl)quinazoline-2,4-diamine] registered an EC50 of 1000 to 5000 nM.

In turn, `Nc1nc(N)c2c(O[C@H]3CCc4ccc(Cl)cc43)cccc2n1` [Example 149, 5-((S)-6-Chloroindan-1-yloxy)quinazoline-2,4-diamine] registered an EC50 of under 1000 nM.

Staying with this assay, now noted: SMN2 promoter driving β-lactamase, 12 point dose curve, average of 3-6 dose curve experiments.
In turn, `Nc1nc(N)c2c(OC3C4CC5CC(C4)CC3C5)cccc2n1` (centres unmarked) [Example 119, 5-(Adamanta-2-yloxy)quiazoline-2,4-diamine] had an EC50 of under 1000 nM.

The molecule `Nc1nc(N)c2c(OCC3CCN(C(=O)c4cccc(I)c4)CC3)cccc2n1` [Example 135, [4-(2,4-Diaminoquinzolin-5-yloxymethyl)piperidin-1-yl]-(3-iodophenyl)methanone] yielded an EC50 of under 1000 nM.

With `Nc1nc(N)c2c(OCC3CCN(C(=O)c4ccc(I)cc4)CC3)cccc2n1` [Example 136, [4-(2,4-Diaminoquinzolin-5-yloxymethyl)piperidin-1-yl]-(4-iodophenyl)methanone], the EC50 is under 1000 nM.

`Nc1nc(N)c2c(OCC3CCN(C(=O)c4ccccc4I)CC3)cccc2n1` [Example 137, [4-(2,4-Diaminoquinzolin-5-yloxymethyl)piperidin-1-yl]-(2-iodophenyl)methanone]: the EC50 was under 1000 nM.

The values above are taken from patent US9067897B2, “2,4-Diaminoquinazolines for spinal muscular atrophy” (Families of Spinal Muscular Atrophy, priority 2004, dated 2015).
